Patent US8513271B2, “Pyrimidine compounds as delta opioid receptor modulators” (Janssen Pharmaceutica, NV, priority 2009, dated 2013)
Where two headings read alike, the source gives them in different places.

How the values were obtained:
delta opioid receptor [1] = target: T1, delta opioid receptor (Rattus norvegicus, UniProt P33533); experiment: Rat brain delta opioid receptor binding assay; settings: rat forebrain
T1 construct: the forebrains were homogenized in Tris buffer in a Teflon®-glass homogenizer; from tissue; host or cells: forebrain of male Wistar rats, particulate (membrane) preparation
T1 sequence (P33533 whole entry): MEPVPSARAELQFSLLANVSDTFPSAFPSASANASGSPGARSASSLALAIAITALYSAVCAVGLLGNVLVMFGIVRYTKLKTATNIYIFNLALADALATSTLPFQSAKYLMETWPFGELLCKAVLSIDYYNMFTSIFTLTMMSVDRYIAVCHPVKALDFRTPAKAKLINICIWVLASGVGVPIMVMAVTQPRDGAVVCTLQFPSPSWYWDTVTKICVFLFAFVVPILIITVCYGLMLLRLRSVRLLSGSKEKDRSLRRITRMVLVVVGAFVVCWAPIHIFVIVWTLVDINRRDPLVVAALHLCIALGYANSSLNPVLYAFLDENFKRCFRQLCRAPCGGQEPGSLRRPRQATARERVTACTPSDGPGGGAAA

mu opioid receptor = target: T2, mu opioid receptor (Rattus norvegicus, UniProt P33535); experiment: Rat brain mu opioid receptor binding assay; settings: rat forebrain, [3H]DAMGO ligand
T2 construct: the forebrains were homogenized in Tris buffer in a Teflon®-glass homogenizer; from tissue; host or cells: forebrain of male Wistar rats, particulate (membrane) preparation
T2 sequence (P33535 whole entry): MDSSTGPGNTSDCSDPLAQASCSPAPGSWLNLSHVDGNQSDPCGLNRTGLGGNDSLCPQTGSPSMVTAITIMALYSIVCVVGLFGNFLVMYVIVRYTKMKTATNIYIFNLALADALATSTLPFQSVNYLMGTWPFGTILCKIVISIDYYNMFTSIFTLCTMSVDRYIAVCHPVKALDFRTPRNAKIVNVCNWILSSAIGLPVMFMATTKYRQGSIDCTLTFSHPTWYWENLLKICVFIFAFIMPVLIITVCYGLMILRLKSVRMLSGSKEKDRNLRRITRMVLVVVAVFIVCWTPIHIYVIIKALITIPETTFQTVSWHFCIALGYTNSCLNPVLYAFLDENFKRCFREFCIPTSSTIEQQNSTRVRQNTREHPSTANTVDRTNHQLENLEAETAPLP

delta opioid receptor [2] = target: T3, delta opioid receptor (Mus musculus, UniProt P32300); experiment: [35S]GTPγS binding assay in NG108-15 cell membranes (delta opioid functional assay), 200 nM screen; type: biochemical; settings: NG108-15 cell membranes; for EC50: averages if tested more than once; for GTPγS δ-opioid receptor Rel Efficacy: relative efficacy from dose response
T3 construct: NG108-15 cell membranes were purchased from Applied Cell Sciences (Rockville, Md.); host or cells: NG108-15 cell membranes
T3 sequence (P32300 whole entry): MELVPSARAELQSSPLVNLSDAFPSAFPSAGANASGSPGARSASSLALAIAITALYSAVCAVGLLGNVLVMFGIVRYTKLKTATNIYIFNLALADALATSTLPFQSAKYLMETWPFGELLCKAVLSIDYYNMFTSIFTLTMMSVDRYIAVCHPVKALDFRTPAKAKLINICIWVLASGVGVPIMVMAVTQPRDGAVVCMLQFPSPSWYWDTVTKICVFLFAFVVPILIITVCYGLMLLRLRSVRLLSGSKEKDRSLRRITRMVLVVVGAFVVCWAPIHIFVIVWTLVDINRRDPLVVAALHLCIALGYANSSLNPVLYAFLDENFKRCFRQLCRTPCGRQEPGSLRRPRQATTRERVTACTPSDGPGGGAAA

[3] = [3H]DPDPE ligand, read-out: δ-binding (DPDPE ligand) Ki
[4] = [3H]naltrindole ligand, read-out: δ-binding (Naltrindole ligand) Ki
[5] = δ-binding (Naltrindole ligand) Ki, [3H]naltrindole ligand
[6] = read-out: GTPγS δ-opioid receptor EC50

SMILES | Ki (mu opioid receptor; read-out: μ-binding Ki) | Ki (delta opioid receptor [1]; [5]) | further results
COc1ccc(Oc2nc(-c3ccc(OC)cc3)ncc2NC[C@@H]2CCCN2)cc1 [Cpd 1] | 3.23 µM | – | Ki (delta opioid receptor [1]; [3]): 0.363 µM
COc1ccc(Oc2nc(-c3cccc(OC)c3)ncc2NC[C@@H]2CCCN2)cc1 [Cpd 3] | 2.35 µM | – | Ki (delta opioid receptor [1]; [3]): 0.142 µM
COc1ccc(Oc2nc(-c3ccccc3OC)ncc2NC[C@@H]2CCCN2)cc1 [Cpd 4] | > 10 µM | – | Ki (delta opioid receptor [1]; [3]): 2.22 µM
COc1ccc(Oc2nc(-c3ccc4ccccc4c3)ncc2NC[C@@H]2CCCN2)cc1 [Cpd 6] | 9.01 µM | – | Ki (delta opioid receptor [1]; [4]): 0.116 µM
COc1ccc(Oc2nc(-c3ccsc3)ncc2NC[C@@H]2CCCN2)cc1 [Cpd 9] | 2.97 µM | – | Ki (delta opioid receptor [1]; [4]): 0.001 µM
COc1ccc(Oc2nc(-c3ccoc3)ncc2NC[C@@H]2CCCN2)cc1 [Cpd 10] | 2 µM | 0.034 µM | –
FC(F)(F)Oc1ccc(Oc2nc(-c3cccnc3)ncc2NC[C@@H]2CCCN2)cc1 [Cpd 11] | 3.08 µM | 0.005 µM | –
NC(=O)c1ccc(Oc2nc(-c3cccnc3)ncc2NC[C@@H]2CCCN2)cc1 [Cpd 12] | 4.52 µM | 0.018 µM | –
CC(=O)Nc1ccc(Oc2nc(-c3cccnc3)ncc2NC[C@@H]2CCCN2)cc1 [Cpd 13] | 5.57 µM | – | Ki (delta opioid receptor [1]; [4]): 0.002 µM
c1ccc(Oc2nc(-c3cccnc3)ncc2NC[C@@H]2CCCN2)cc1 [Cpd 14] | 1.73 µM | 0.001 µM | –
COc1ccc(Oc2nc(-c3cccc(O)c3)ncc2NC[C@@H]2CCCN2)cc1 [Cpd 15] | 0.416 µM | 0.0001 µM | –
COc1ccc(Oc2nc(-c3cccc4ncccc34)ncc2NC[C@@H]2CCCN2)cc1 [Cpd 16] | 1.32 µM | 0.014 µM | –
COc1ccc(Oc2nc(-c3cccc4cccnc34)ncc2NC[C@@H]2CCCN2)cc1 [Cpd 17] | 3.08 µM | 0.03 µM | –
COc1ccc(Oc2nc(-c3cccc4nc(C)ccc34)ncc2NC[C@@H]2CCCN2)cc1 [Cpd 18] | 2.24 µM | – | Ki (delta opioid receptor [1]; [4]): 0.172 µM
COc1ccc(Oc2nc(-c3ccc(-c4ccccc4)cc3)ncc2NC[C@@H]2CCCN2)cc1 [Cpd 19] | 8.08 µM | – | Ki (delta opioid receptor [1]; [4]): 0.201 µM
COc1ccc(Oc2nc(-c3ccc4sc5ccccc5c4c3)ncc2NC[C@@H]2CCCN2)cc1 [Cpd 21] | 2.39 µM | – | Ki (delta opioid receptor [1]; [4]): 0.201 µM
COc1ccc(Oc2nc(-c3cnc(O)nc3O)ncc2NC[C@@H]2CCCN2)cc1 [Cpd 27] | 15.5 µM | – | Ki (delta opioid receptor [1]; [4]): 2.57 µM
COc1ccc(Oc2nc(-c3cccc(C#N)c3)ncc2NC[C@@H]2CCCN2)cc1 [Cpd 28] | 0.295 µM | 0.0061 µM | –
COc1ccc(Oc2nc(-c3cccc([N+](=O)[O-])c3)ncc2NC[C@@H]2CCCN2)cc1 [Cpd 29] | 2.66 µM | 0.086 µM | –
COc1ccc(Oc2nc(-c3cccc(C(N)=O)c3)ncc2NC[C@@H]2CCCN2)cc1 [Cpd 30] | 1.09 µM | 0.003 µM | –
CCN(CC)C(=O)c1cccc(-c2ncc(NC[C@@H]3CCCN3)c(Oc3ccc(OC)cc3)n2)c1 [Cpd 31] | 0.837 µM | 0.031 µM | –
COc1ccc(Oc2nc(-c3cccc(S(C)(=O)=O)c3)ncc2NC[C@@H]2CCCN2)cc1 [Cpd 32] | – | 0.0126 µM | Ki (mu opioid receptor; μ-binding Ki): 0.0641 µM
COc1ccc(Oc2nc(-c3ccc(O)cc3)ncc2NC[C@@H]2CCCN2)cc1 [Cpd 33] | – | 0.029 µM | Ki (mu opioid receptor; μ-binding Ki): 0.029 µM
COc1ccc(Oc2nc(-c3ccc4[nH]ccc4c3)ncc2NC[C@@H]2CCCN2)cc1 [Cpd 34] | – | 0.015 µM | Ki (mu opioid receptor; μ-binding Ki): 0.015 µM
COc1ccc(Oc2nc(-c3noc(=O)[nH]3)ncc2NC[C@@H]2CCCN2)cc1 [Cpd 35, 3-{4-(4-Methoxy-phenoxy)-5-[(pyrrolidin-2-(S)-ylmethyl)-amino]-pyrimidin-2-yl}-4H-[1,2,4]oxadiazol-5-one] | 0.184 µM | – | Ki (delta opioid receptor [1]; [4]): 0.184 µM
Fc1ccc(Oc2nc(-c3cccnc3)ncc2NC[C@@H]2CCCN2)cc1 [Cpd 36] | 4.77 µM | 0.003 µM | –

SMILES | Ki (mu opioid receptor; read-out: μ-binding Ki) | Ki (delta opioid receptor [1]; [5]) | further results
COc1ccc(-c2ncc(NC[C@@H]3CCCN3)c(Oc3ccc(F)cc3)n2)cn1 [Cpd 37] | > 10 µM | 0.01 µM | –
COc1ccc(Oc2nc(-c3cccc(F)c3)ncc2NC[C@@H]2CCCN2)cc1 [Cpd 38] | 4.91 µM | 0.001 µM | –
COc1ccc(-c2ncc(NC[C@@H]3CCCN3)c(Oc3ccccc3OC)n2)cn1 [Cpd 39] | 8.99 µM | 0.067 µM | –
COc1ccccc1Oc1nc(-c2cccnc2)ncc1NC[C@@H]1CCCN1 [Cpd 40] | 7.64 µM | 0.093 µM | –
COc1ccc(Oc2nc(-c3cccc(NC(C)=O)c3)ncc2NC[C@@H]2CCCN2)cc1 [Cpd 42] | 1.23 µM | 0.016 µM | –
COc1ccc(Oc2nc(-c3ccc(NC(C)=O)cc3)ncc2NC[C@@H]2CCCN2)cc1 [Cpd 43] | 0.523 µM | 0.004 µM | –
COc1ccc(-c2ncc(NC[C@@H]3CCCN3)c(Oc3ccc(N)cc3)n2)cn1 [Cpd 44] | 2.69 µM | – | Ki (delta opioid receptor [1]; [4]): 0.004 µM
COc1ccc(Oc2nc(-c3cccc(N)c3)ncc2NC[C@@H]2CCCN2)cc1 [Cpd 45] | 0.812 µM | – | Ki (delta opioid receptor [1]; [4]): 0.011 µM
Nc1ccc(Oc2nc(-c3cccnc3)ncc2NC[C@@H]2CCCN2)cc1 [Cpd 46] | 3.55 µM | 0.027 µM | –
COc1ccc(Oc2nc(-c3nc4ccccc4s3)ncc2NC[C@@H]2CCCN2)cc1 [Cpd 47] | 1.13 µM | 0.006 µM | –
COc1ccc(Oc2nc(-c3nccs3)ncc2NC[C@@H]2CCCN2)cc1 [Cpd 48] | 0.862 µM | 0.024 µM | –
COc1ccc(Oc2nc(-c3cc4ccccc4s3)ncc2NC[C@@H]2CCCN2)cc1 [Cpd 49] | 3.56 µM | – | Ki (delta opioid receptor [1]; [4]): 0.103 µM
COc1ccc(Oc2nc(-c3cccc(C(F)(F)F)c3)ncc2NC[C@@H]2CCCN2)cc1 [Cpd 50] | 0.597 µM | 0.055 µM | –
COc1ccc(Oc2nc(-c3cccc(OC(F)(F)F)c3)ncc2NC[C@@H]2CCCN2)cc1 [Cpd 51] | 1.03 µM | 0.022 µM | –
COc1ccc(Oc2nc(-c3cnc(SC)nc3)ncc2NC[C@@H]2CCCN2)cc1 [Cpd 52] | 0.539 µM | 0.0004 µM | –
COc1ccc(Oc2nc(-c3cnc(OC)nc3)ncc2NC[C@@H]2CCCN2)cc1 [Cpd 53] | 0.591 µM | 0.0002 µM | –
COc1ccc(Oc2nc(-c3cc(F)cc(F)c3)ncc2NC[C@@H]2CCCN2)cc1 [Cpd 55] | 2.05 µM | 0.021 µM | –
COc1ccc(Oc2nc(-c3ccn[nH]3)ncc2NC[C@@H]2CCCN2)cc1 [Cpd 61] | 3.99 µM | – | Ki (delta opioid receptor [1]; [4]): 0.259 µM
COc1ccc(Oc2nc(-c3cncc(C#N)c3)ncc2NCC2CNCCO2)cc1 (stereo not shown) [Cpd 275] | – | 0.046 µM | EC50 (delta opioid receptor [2]; [6]): 0.922 µM
COc1ccc(Oc2nc(-c3cncnc3)ncc2NCC2CNCCO2)cc1 (stereo not shown) [Cpd 277] | – | – | Ki (delta opioid receptor [1]; [4]): 0.032 µM; EC50 (delta opioid receptor [2]; [6]): 1.09 µM; GTPγS δ-opioid receptor Rel Efficacy (delta opioid receptor [2]): 1.012
COc1ccc(Oc2nc(-c3cncc(C#N)c3)ncc2NC[C@H]2COCCN2)cc1 [Cpd 280] | – | – | Ki (delta opioid receptor [1]; [4]): 0.006 µM; EC50 (delta opioid receptor [2]; [6]): 0.181 µM; GTPγS δ-opioid receptor Rel Efficacy (delta opioid receptor [2]): 0.998
COc1ccc(Oc2nc(-c3cncc(C#N)c3)ncc2NC[C@H](C)N)cc1 [Cpd 292] | – | 0.002 µM | EC50 (delta opioid receptor [2]; [6]): 0.363 µM
COc1ccc(Oc2nc(-c3cncc(C#N)c3)ncc2NCCN)cc1 [Cpd 293] | – | 0.008 µM | EC50 (delta opioid receptor [2]; [6]): 0.317 µM
COc1ccc(Oc2nc(-c3cncc(C#N)c3)ncc2NC2CCC(N)CC2)cc1 (stereo not shown) [Cpd 298] | – | 0.004 µM | EC50 (delta opioid receptor [2]; GTPγS δ-opioid receptor EC50 (μM)): 0.087 µM; GTPγS δ-opioid receptor Rel Efficacy (delta opioid receptor [2]): 1.012
COc1ccc(Oc2nc(-c3cncnc3)ncc2NC[C@H]2CCCC[C@@H]2N)cc1 [Cpd 300] | – | – | Ki (delta opioid receptor [1]; [4]): 0.021 µM; EC50 (delta opioid receptor [2]; [6]): 1.05 µM; GTPγS δ-opioid receptor Rel Efficacy (delta opioid receptor [2]): 0.968
